# Read-outs that look alike come from different tables or passages of the source.
# What was measured:
# HDAC1 = target: T1, HDAC1 (Homo sapiens, UniProt Q13547); test: HDAC enzyme inhibition assay (fluorogenic substrate); assay type: biochemical; settings: recombinant enzyme, n ≥ 2, SD <10% of mean
# T1 construct: purchased BPS Bioscience
# Procedure: (§1) All of the HDAC enzymes tested were purchased from BPS Bioscience. First, 20 μL of each recombinant HDAC enzyme solution (HDAC1, 2, 3, 4, 6, 7, 8, and 9) was mixed with various concentrations of tested compound samples (20 μL) in a 96-well plate. The mixture was incubated at 30°C for 1 h for the dose-dependent assay. Additionally, mixtures were incubated for 15, 30, 60, and 90 min, for the time-dependent assay, and then 10 μL of fluorogenic substrate [3 mM Boc-Lys(acetyl)-AMC or Boc-Lys (trifluoroacetyl)-AMC for HDAC1/2/3/6 or HDAC4/7/8/9, respectively] was added. Then, the acetylation reaction was initiated by adding HDAC substrate working solution and incubating at 30°C for 2 h. After the desired time, 10 μL developer with trypsin and trichostatin A was added to stop the reaction, and then the mixture was incubated at 30°C for another 30 min.
# (§2) A microplate reader was used to determine fluorescence intensity at excitation: 360 nm and emission: 460 nm. The inhibition ratios were calculated by comparing the fluorescence intensities from tested wells to those of controls. The IC50 curves and values were then obtained with GraphPad Prism 6.0 software.
# HDAC6 = target: T2, HDAC6 (Homo sapiens, UniProt Q9UBN7); test: as above; assay type: biochemical
# T2 construct: purchased BPS Bioscience
# Procedure: as §1, §2
# HDAC7 = target: T3, HDAC7 (Homo sapiens, UniProt Q8WUI4); test: as above; assay type: biochemical; settings: recombinant enzyme, n ≥ 2, SD <10% of mean
# T3 construct: purchased BPS Bioscience
# T3 sequence (Q8WUI4 whole entry): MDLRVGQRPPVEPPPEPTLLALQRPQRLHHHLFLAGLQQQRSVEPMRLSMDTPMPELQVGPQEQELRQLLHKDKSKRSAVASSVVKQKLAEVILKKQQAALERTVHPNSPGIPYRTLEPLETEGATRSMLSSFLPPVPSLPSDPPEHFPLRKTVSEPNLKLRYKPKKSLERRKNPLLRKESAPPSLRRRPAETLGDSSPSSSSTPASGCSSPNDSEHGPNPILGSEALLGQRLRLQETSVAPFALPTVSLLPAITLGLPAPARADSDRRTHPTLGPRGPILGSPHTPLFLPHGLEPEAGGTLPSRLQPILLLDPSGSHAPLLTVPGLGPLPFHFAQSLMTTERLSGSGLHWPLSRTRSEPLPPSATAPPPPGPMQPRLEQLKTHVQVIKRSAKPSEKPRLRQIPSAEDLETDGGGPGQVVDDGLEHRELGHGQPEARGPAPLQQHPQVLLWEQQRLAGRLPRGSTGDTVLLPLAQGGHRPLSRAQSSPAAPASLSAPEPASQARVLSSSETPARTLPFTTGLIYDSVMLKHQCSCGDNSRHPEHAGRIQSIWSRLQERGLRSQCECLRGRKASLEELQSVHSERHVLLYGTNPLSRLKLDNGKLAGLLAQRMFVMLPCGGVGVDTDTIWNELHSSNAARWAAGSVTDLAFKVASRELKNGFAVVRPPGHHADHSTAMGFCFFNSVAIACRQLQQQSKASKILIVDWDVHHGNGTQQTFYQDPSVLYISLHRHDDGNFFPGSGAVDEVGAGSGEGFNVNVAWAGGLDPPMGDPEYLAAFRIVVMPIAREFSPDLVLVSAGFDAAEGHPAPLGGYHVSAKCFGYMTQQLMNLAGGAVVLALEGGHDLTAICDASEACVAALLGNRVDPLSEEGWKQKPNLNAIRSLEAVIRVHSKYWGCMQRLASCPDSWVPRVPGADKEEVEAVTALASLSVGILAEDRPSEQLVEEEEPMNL
# Procedure: as §1, §2
# HDAC2 = target: T4, HDAC2 (Homo sapiens, UniProt Q92769); test: biochemical; settings: recombinant enzyme, n ≥ 2, SD <10% of mean
# T4 construct: purchased BPS Bioscience
# T4 sequence (Q92769 whole entry): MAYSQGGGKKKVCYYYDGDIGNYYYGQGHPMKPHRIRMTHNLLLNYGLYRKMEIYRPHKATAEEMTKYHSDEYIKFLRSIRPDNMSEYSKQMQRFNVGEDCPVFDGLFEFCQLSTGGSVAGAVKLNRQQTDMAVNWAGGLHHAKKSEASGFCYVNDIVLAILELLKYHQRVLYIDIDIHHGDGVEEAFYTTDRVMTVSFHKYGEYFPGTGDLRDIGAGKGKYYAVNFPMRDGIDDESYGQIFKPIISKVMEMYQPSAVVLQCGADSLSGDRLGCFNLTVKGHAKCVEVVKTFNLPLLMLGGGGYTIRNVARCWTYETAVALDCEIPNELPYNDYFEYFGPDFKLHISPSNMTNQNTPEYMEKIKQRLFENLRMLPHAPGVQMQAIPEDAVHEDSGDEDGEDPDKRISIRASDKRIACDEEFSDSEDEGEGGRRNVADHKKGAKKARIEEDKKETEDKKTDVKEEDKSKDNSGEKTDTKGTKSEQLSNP
# Procedure: as §1, §2
# HDAC4 = target: T5, HDAC4 (Homo sapiens, UniProt P56524); test: biochemical
# T5 construct: purchased BPS Bioscience
# T5 sequence (P56524 whole entry): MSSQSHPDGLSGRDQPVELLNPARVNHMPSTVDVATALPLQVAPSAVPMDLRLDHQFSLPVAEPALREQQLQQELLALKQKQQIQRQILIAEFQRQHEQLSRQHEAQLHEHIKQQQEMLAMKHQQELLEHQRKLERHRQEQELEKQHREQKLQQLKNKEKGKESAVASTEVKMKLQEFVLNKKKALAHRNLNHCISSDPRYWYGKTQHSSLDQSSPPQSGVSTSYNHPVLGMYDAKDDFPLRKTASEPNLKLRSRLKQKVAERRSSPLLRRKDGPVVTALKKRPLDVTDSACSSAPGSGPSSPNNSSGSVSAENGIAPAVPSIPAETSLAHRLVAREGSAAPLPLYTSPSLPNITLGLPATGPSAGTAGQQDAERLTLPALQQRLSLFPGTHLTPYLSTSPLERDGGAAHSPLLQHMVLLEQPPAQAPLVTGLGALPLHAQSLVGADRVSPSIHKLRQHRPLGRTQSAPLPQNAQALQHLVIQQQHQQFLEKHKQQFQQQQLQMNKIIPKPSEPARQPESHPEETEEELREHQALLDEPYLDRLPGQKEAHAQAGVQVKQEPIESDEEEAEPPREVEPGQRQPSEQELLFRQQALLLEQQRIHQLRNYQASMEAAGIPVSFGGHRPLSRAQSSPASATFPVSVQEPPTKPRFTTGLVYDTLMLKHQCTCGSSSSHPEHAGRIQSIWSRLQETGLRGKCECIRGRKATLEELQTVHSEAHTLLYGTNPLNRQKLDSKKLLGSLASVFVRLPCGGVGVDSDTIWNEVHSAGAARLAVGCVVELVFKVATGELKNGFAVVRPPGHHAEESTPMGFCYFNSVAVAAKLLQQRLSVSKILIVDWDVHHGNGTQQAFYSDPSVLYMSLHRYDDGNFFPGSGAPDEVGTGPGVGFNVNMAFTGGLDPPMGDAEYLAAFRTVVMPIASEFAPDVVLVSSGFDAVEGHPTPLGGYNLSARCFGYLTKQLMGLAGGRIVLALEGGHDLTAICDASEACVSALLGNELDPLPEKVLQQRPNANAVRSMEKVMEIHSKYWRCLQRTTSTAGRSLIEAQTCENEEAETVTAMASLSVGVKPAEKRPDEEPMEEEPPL
# Procedure: as §1, §2
# HDAC8 = target: T6, HDAC8 (Homo sapiens, UniProt Q9BY41); test: biochemical
# T6 construct: purchased BPS Bioscience
# T6 sequence (Q9BY41 whole entry): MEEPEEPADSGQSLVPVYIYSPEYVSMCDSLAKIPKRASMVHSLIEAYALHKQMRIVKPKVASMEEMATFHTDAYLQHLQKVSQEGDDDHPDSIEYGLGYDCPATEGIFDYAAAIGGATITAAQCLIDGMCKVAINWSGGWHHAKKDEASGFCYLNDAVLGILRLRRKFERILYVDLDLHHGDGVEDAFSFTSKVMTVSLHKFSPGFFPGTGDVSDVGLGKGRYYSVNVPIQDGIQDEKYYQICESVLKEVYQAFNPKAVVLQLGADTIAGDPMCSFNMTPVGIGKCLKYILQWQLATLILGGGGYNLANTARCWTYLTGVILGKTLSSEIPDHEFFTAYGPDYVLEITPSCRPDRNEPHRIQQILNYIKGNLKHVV
# Procedure: as §1, §2
# HDAC9 = target: T7, HDAC9 (Homo sapiens, UniProt Q9UKV0); test: biochemical
# T7 construct: purchased BPS Bioscience
# T7 sequence (Q9UKV0 whole entry): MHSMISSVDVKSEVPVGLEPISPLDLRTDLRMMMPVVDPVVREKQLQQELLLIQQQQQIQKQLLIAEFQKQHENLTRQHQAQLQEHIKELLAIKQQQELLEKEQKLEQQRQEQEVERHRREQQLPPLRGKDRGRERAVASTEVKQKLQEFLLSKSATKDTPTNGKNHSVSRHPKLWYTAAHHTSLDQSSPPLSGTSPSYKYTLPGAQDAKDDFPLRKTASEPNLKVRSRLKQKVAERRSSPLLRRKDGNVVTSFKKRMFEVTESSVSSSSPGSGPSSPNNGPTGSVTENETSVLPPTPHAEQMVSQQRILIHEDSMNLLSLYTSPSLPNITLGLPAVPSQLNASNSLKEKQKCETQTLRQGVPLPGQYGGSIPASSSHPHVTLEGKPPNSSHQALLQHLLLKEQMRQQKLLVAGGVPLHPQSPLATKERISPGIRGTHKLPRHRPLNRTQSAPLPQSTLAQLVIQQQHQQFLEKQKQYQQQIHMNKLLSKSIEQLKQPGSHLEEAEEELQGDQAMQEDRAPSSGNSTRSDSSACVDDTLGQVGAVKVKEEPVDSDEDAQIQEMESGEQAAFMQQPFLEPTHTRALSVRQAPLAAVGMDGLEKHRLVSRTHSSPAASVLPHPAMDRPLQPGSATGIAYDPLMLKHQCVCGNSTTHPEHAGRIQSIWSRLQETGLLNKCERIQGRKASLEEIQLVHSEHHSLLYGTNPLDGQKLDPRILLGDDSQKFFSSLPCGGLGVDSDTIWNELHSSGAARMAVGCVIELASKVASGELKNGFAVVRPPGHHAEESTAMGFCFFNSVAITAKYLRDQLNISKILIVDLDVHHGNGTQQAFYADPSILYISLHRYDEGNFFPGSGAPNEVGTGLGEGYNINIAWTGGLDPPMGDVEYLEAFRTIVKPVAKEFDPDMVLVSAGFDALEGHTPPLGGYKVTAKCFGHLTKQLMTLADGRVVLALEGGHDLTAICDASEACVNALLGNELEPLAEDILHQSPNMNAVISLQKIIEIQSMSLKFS
# Procedure: as §1, §2
# HDAC3 = target: T8, HDAC3 (Homo sapiens, UniProt O15379); test: biochemical; assay type: biochemical
# T8 construct: purchased BPS Bioscience
# T8 sequence (O15379 whole entry): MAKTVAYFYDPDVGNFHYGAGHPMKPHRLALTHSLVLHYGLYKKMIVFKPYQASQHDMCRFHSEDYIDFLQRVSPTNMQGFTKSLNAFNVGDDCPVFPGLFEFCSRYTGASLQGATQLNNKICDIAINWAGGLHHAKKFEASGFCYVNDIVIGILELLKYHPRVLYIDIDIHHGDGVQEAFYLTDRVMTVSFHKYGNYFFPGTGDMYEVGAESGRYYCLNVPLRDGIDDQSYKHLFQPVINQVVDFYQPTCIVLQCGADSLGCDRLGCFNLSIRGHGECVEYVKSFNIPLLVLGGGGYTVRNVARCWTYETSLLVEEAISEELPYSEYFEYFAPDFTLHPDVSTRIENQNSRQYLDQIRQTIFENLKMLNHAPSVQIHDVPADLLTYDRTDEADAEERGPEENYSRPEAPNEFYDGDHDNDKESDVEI
# T8 sequence (Q9Y618 395-489 partner limits assumed): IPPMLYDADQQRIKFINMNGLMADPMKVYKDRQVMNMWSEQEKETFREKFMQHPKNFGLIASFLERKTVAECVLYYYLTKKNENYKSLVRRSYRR
# Procedure: as §1, §2
# HepG2 cells [1] = test: Antiproliferative MTT assay; assay type: cell-based, human
# Procedure: (§3) The stock solutions of compounds to be tested were prepared in culture medium. […] To determine cell viability, 20 μL MTT working solution (5 mg/mL) was then added to each well and incubated for another 4 h. After this incubation, the medium was carefully aspirated, and 200 μL dimethyl sulfoxide (DMSO) was added to each well and vibrated for 10 min to make sure formed formazans were completely dissolved. The optical densities (ODs) at 490 and 630 nm were counted by Universal Microplate Spectrophotometer. […] Origin 7.5 software was used to calculate the IC50 values from at least three independent experiments.
# A2780 cells = test: Antiproliferative MTT assay; assay type: cell-based; settings: Homo sapiens, A2780, 48 h, read-out: Antiproliferative IC50
# Procedure: as §3
# FTC-133 cells = test: Antiproliferative MTT assay; assay type: cell-based; settings: Homo sapiens, FTC-133, 48 h, read-out: Antiproliferative IC50
# Procedure: as §3
# H322 cells = test: Antiproliferative MTT assay; assay type: cell-based; settings: Homo sapiens, NCI-H322, 48 h, read-out: Antiproliferative IC50
# Procedure: as §3
# Hela cells = test: Antiproliferative MTT assay; assay type: cell-based; settings: Homo sapiens, 48 h, read-out: Antiproliferative IC50
# Procedure: as §3
# K562 cells = test: Antiproliferative MTT assay; assay type: cell-based; settings: Homo sapiens, K562, 48 h, read-out: Antiproliferative IC50
# Procedure: as §3
# MDA-MB-231 cells = test: Antiproliferative MTT assay; assay type: cell-based; settings: Homo sapiens, MDA-MB-231, 48 h, read-out: Antiproliferative IC50
# Procedure: as §3
# OS-RC-2 cells = test: Antiproliferative MTT assay; assay type: cell-based; settings: Homo sapiens, OS-RC-2, 48 h, read-out: Antiproliferative IC50
# Procedure: as §3
# SK-NEP-1 cells = test: Antiproliferative MTT assay; assay type: cell-based; settings: Homo sapiens, SK-NEP-1, 48 h, read-out: Antiproliferative IC50
# Procedure: as §3
# SW579 cells = test: Antiproliferative MTT assay; assay type: cell-based; settings: Homo sapiens, SW579, 48 h, read-out: Antiproliferative IC50
# Procedure: as §3
# U266 cells = test: Antiproliferative MTT assay; assay type: cell-based; settings: Homo sapiens, U-266, 48 h, read-out: Antiproliferative IC50
# Procedure: as §3
# U937 cells = test: Antiproliferative MTT assay; assay type: cell-based; settings: Homo sapiens, U-937, 48 h, read-out: Antiproliferative IC50
# Procedure: as §3
# A549 cells = test: Antiproliferative MTT assay; assay type: cell-based; settings: Homo sapiens, A549, 48 h, read-out: Antiproliferative IC50
# Procedure: (§4) […]. The stock solutions of compounds to be tested were prepared in culture medium. Tumor cell lines were cultured in 96-well plates at a density of 5 × 10^3 cells per well and incubated until 90–95% confluence, and then each well received 100 μL medium containing desired concentrations of test compounds, and then incubated at 37°C and 5% CO2 for 48 h. To determine cell viability, 20 μL MTT working solution (5 mg/mL) was then added to each well and incubated for another 4 h. After this incubation, the medium was carefully aspirated, and 200 μL dimethyl sulfoxide (DMSO) was added to each well and vibrated for 10 min to make sure formed formazans were completely dissolved. The optical densities (ODs) at 490 and 630 nm were counted by Universal Microplate Spectrophotometer. […] Origin 7.5 software was used to calculate the IC50 values from at least three independent experiments.
# H460 cells = test: Antiproliferative MTT assay; assay type: cell-based; settings: Homo sapiens, NCI-H460, 48 h, read-out: Antiproliferative IC50
# Procedure: as §4
# SW480 cells = test: Antiproliferative MTT assay; assay type: cell-based; settings: Homo sapiens, SW480, 48 h, read-out: Antiproliferative IC50
# Procedure: as §4
# HepG2 xenograft = test: In vivo antitumor activity, HepG2 xenograft nude mice model; settings: 100 mg/kg once a day for 15 days
# Procedure: When the tumor is prominent, the BALB/c female mice were randomly assigned into control and treatment groups (six mice per group).
# Injected mice were kept for 10 days; those with palpable tumors were then randomly assigned into treatment and control groups (six mice per group). The treatment groups were administrated with 100 mg/kg/d test compound intragastrically, whereas the control group was administered with an equal volume of phosphate-buffered saline (PBS) solution. The tumor size and body weight were assessed every day. After 15 days of treatment, the mice were euthanized, and tumor weights were acquired with an electronic balance.
# HepG2 cells [2] = test: Cell apoptosis assay (annexin V-FITC/PI, flow cytometry); assay type: cell-based, human; settings: 24 h, normal group 5.83%
# Procedure: Then cells were washed with PBS, collected, and resuspended with binding buffer from a commercially available annexin V–FITC kit (Thermo Fisher Co., USA) and mixed with 5 μL of annexin V–FITC gently. Following 10 min of incubation, 1 μL of propidium iodide was added to the samples and incubated for another 20 min while avoiding light. Flow cytometry was used to determine cell apoptosis status (CytoFLEX, Beckman Coulter).
# HepG2 cells [3] = test: Cell cycle analysis (PI, flow cytometry); settings: 6 h; for Percentage of cells in G2/M phase (third peak): HepG2
# Procedure: (§5) Following 6-h incubation, cells were washed twice with cold PBS and then fixed in 70% precooled ethanol at 4°C for 12 h. The fixed cells were washed again and then stained with PI/RNase A for 30 min at room temperature.
# HepG2 cells xenograft = test system: HepG2 cells xenograft; set-up: method as in PMID 31543818; settings: nude mice xenograft model; cited from earlier work
# HepG2 cells [4] = settings: 6 h
# Procedure: as §5
# HepG2 cells [5] = test: Drug combination analysis (MTT assay); assay type: cell-based; settings: Homo sapiens, 48 h, read-out: Percentage inhibition rate (PIR)
# Procedure: The efficacy of drug combination of FNA with taxol and camptothecin was evaluated via cell viability assay (MTT assay). The stock solutions of tested compounds were diluted to the desired concentrations with culture medium. The cells were cultured in 96-well plates at a density 5 × 10^3 cells per well and incubated until 90–95% confluence, and then 100 μL of medium containing desired concentrations of test compounds was added to the wells. Following 48-h incubation, 10 μL of MTT working solution was added to each well and incubated for another 4 h. After removal of the medium, 200 μL DMSO was added to each well to dissolve the formed formazan. The plates were vortexed for 10 min to ensure complete dissolution. Then the OD was acquired with a microplate reader at 490 and 630 nm.
# T1 sequence (Q13547 whole entry): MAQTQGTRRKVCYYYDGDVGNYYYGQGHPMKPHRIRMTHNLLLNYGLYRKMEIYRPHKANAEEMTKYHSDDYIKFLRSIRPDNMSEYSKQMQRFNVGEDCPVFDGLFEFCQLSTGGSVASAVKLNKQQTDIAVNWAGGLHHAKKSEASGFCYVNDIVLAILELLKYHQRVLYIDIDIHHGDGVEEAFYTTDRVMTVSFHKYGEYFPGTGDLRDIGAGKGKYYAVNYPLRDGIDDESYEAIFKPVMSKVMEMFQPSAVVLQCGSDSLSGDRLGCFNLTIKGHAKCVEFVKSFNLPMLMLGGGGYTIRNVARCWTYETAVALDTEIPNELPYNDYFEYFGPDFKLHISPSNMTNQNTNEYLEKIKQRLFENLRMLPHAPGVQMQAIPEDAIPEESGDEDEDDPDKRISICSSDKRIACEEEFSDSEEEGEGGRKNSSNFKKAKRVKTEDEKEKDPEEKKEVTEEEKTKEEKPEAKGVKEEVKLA
structure (smiles),measurement,setting,value
"Nc1cc(F)ccc1NC(=O)c1ccc(N(CCCl)CCCl)cc1 [FNA, N-(2-amino-4-fluorophenyl)-4-[bis-(2-chloroethyl)-amino]-benzamide]",IC50,HDAC1,0.843 µM
same,IC50,HDAC6,> 5 µM
same,IC50,HDAC7,> 5 µM
same,IC50,HDAC2,0.949 µM
same,IC50,HDAC4,> 5 µM
same,IC50,HDAC8,> 5 µM
same,IC50,HDAC9,> 5 µM
same,HDAC3 selectivity vs. HDAC1,HDAC3; ratio of IC50 values,8.83 fold
same,HDAC3 selectivity vs. HDAC2,HDAC3; ratio of IC50 values,9.94 fold
same,IC50,"HDAC3; recombinant enzyme, n ≥ 2, SD <10% of mean",0.0955 µM
same,Potency relative to SAHA in inhibition of the growth of HepG2 cells,"HepG2 cells [1]; HepG2, ratio of IC50 values",13.3 fold
same,IC50,"HepG2 cells [1]; Homo sapiens, HepG2, 48 h, read-out: Antiproliferative IC50",1.3 ± 0.25 µM
same,IC50,A2780 cells,4.3 ± 0.12 µM
same,IC50,FTC-133 cells,9.09 ± 0.13 µM
same,IC50,H322 cells,6.36 ± 0.07 µM
same,IC50,Hela cells,1.41 ± 0.04 µM
same,IC50,K562 cells,1.31 ± 0.05 µM
same,IC50,MDA-MB-231 cells,35.29 ± 0.03 µM
same,IC50,OS-RC-2 cells,> 100 µM
same,IC50,SK-NEP-1 cells,8.32 ± 0.18 µM
same,IC50,SW579 cells,52.4 ± 0.13 µM
same,IC50,U266 cells,0.63 ± 0.32 µM
same,IC50,U937 cells,0.55 ± 0.03 µM
same,IC50,A549 cells,33.74 ± 0.04 µM
same,IC50,H460 cells,4.73 ± 0.05 µM
same,IC50,SW480 cells,> 100 µM
same,Tumor growth inhibition (TGI) rate,HepG2 xenograft,48.89%
same,Apoptosis rate of HepG2 cells,HepG2 cells [2]; 1 μM,14.08%
same,Apoptosis rate of HepG2 cells,HepG2 cells [2]; 3 μM,19.11%
same,Apoptosis rate of HepG2 cells,HepG2 cells [2]; 9 μM,28.83%
same,Percentage of cells in G2/M phase (third peak),HepG2 cells [3]; 0.125 μM,18.84%
same,Percentage of cells in G2/M phase (third peak),HepG2 cells [3]; 0.5 μM,59.36%
"Nc1ccccc1NC(=O)c1ccc(N(CCCl)CCCl)cc1 [NA, N-(2-aminophenyl)-4-(bis(2-chloroethyl)amino)benzamide]",In vivo potency compared with SAHA,HepG2 cells xenograft,lower potency than SAHA
"O=C(CCCCCCC(=O)Nc1ccccc1)NO [SAHA, Vorinostat]",IC50,H460 cells,7.63 ± 0.03 µM
same,IC50,SW480 cells,2.91 ± 0.04 µM
same,Apoptosis rate of HepG2 cells,HepG2 cells [2]; 1 μM,10.03%
same,Apoptosis rate of HepG2 cells,HepG2 cells [2]; 9 μM,12.43%
same,"Percentage of cells, first peak of cell cycle histogram (phase not given)",HepG2 cells [4]; 0.125 μM,57.65%
same,"Percentage of cells, second peak of cell cycle histogram (phase not given)",HepG2 cells [4]; 0.125 μM,25.02%
same,"Percentage of cells, first peak of cell cycle histogram (phase not given)",HepG2 cells [4]; 0.25 μM,56.26%
same,"Percentage of cells, second peak of cell cycle histogram (phase not given)",HepG2 cells [4]; 0.25 μM,26.33%
same,"Percentage of cells, first peak of cell cycle histogram (phase not given)",HepG2 cells [4]; 0.5 μM,64.73%
same,"Percentage of cells, second peak of cell cycle histogram (phase not given)",HepG2 cells [4]; 0.5 μM,23.27%
same,Effect in the regulation of HepG2 cell cycle,"HepG2 cells [3]; 0.125, 0.25 and 0.5 μM",did not exhibit any effects
CC[C@@]1(O)C(=O)OCc2c1cc1n(c2=O)Cc2cc3ccccc3nc2-1 [camptothecin],inhibition at 0.25 µM,"HepG2 cells [5]; HepG2, camptothecin 0.25 μM alone",61.7%
same,inhibition at 0.5 µM,"HepG2 cells [5]; HepG2, camptothecin 0.5 μM alone",60.9%
CC(=O)O[C@H]1C(=O)[C@@]2(C)[C@H]([C@H](OC(=O)c3ccccc3)[C@]3(O)C[C@H](OC(=O)[C@H](O)[C@@H](NC(=O)c4ccccc4)c4ccccc4)C(C)=C1C3(C)C)[C@]1(OC(C)=O)CO[C@@H]1C[C@@H]2O [taxol],inhibition at 0.1 µM,"HepG2 cells [5]; HepG2, taxol 0.1 μM alone",57.1%
same,inhibition at 0.2 µM,"HepG2 cells [5]; HepG2, taxol 0.2 μM alone",62.4%
